{
  "source": "paper PMC10067442",
  "about": "“In vivo quantitative high-throughput screening for drug discovery and comparative toxicology” (Disease Models & Mechanisms, 2023)",
  "key": {"[1]": {"test_system": "HEK293 cells", "test": "HEK293 cell viability (CellTiter-Glo, ATP levels)", "format": "cell-based", "details": "Homo sapiens, 24 h post-treatment, screening control, 14 replicate wells", "procedure": "Mammalian cell toxicity was evaluated in HEK293 cells (ATCC) using ATP levels as an indicator of metabolically active cells. Assays were performed in 1536-well plates (Greiner white/solid bottom, high base), and luminescence measurements were made on a ViewLux (Perkin Elmer) ([Martinez et al., 2021]; [Solinski et al., 2019]). Assay-ready plates in 1536-well format were prepared as above using the 384-well Echo-compatible source plates; 25 nl of a seven-point titration with 1:5 dilution starting at a high concentration of 2.5–20 mM of compound was added to respective wells with an Echo 555 acoustic dispenser. A titration of digitonin, 20 mM to 610 nM in DMSO (83.3 µM to 2.5 nM final assay concentration), was used as an intraplate cell toxicity control titration. DMSO vehicle and 83.3 μM digitonin final concentration (64 or 32 replicate wells per assay plate, respectively) were used to establish the assay signal window. Plates were stored at −80°C until use and equilibrated to ambient temperature prior to cell dispense. Then, 1500 cells were added at 6 μl assay volume/well (240-fold dilution) across plates with a Multidrop Combi dispenser (Thermo Fisher Scientific) in standard Dulbecco's modified Eagle medium. Cell viability-dependent luminescence levels were read following the addition of 4 μl CellTiter-Glo (Promega) after 24 h incubation with the test compound."}, "[2]": {"test_system": "C. elegans", "details": "total GFP area, days 3 and 7 post chemical exposure"}, "[3]": {"test_system": "C. elegans strain PE254", "test": "C. elegans LSC qHTS viability assay, Anti-Infectives library primary screen (BG-fed, 384-well)", "format": "in vivo, Caenorhabditis elegans", "procedure": "Levamisole, ivermectin and albendazole were purchased from Sigma-Aldrich. Stock solutions of all compounds were prepared at 10 mM in DMSO, and ivermectin was diluted to a 10 µM working dilution in DMSO. […] Of these, 284 (38%) are approved for clinical use in the United States, 32 (4%) were previously marketed for use in the United States, and 62 (8%) are used clinically outside of the United States. […] DMSO stock solutions of were arrayed in Echo-qualified 384-well cyclic olefin copolymer plates (Labcyte) in qHTS inter-plate dilution with seven concentrations, 1:5 dilution, resulting in a final concentration range of 2.5–20 mM high concentration titrated to 160 nM to 1.28 µM low concentration ([Yasgar et al., 2008]). ‘Assay-ready’ plates were prepared in 384-well uClear microtiter plates (Greiner BioOne), with compounds acoustically dispensed at 250 nl per well with an Echo 555 in the above inter-plate titration array. Two plates with DMSO added across the compound field at the same volume were prepared as screening controls (‘uniformity plates’). DMSO vehicle control was added to every well of column 1, and levamisole cytotoxicity control was added at a high concentration of 10 mM in wells 1–8 and titrated 1:3, starting at a high concentration of 10 mM to 4.57 µM in wells 9–16 of column 2 of every plate. Additionally, ivermectin, levamisol and albendazole were plated as internal controls on one assay plate in 16-point, 1:2 titration down six replicate columns per compound, starting at a high concentration of 10 µM (ivermectin) or 10 mM (levamisole and albendazole). Assay-ready plates were sealed and frozen at −80°C until use.\nC. elegans strain PE254 were collected from 12 NGM plates as above, transferred to 250 ml S medium supplemented with OP50 E. coli pellet collected from 2 l overnight culture, and grown for 5 days at 21°C with vigorous shaking in an Incu-Shaker Mini Shaking Incubator (Benchmark Scientific, Inc.). Eggs were axenized as above and hatched overnight in M9 buffer at 21°C and shaken at 65 rpm. Assay ready plates were thawed and allowed to equilibrate to ambient temperature. BGs in S medium (30 µl/well) at an OD600=0.85 were manually added across plates with a Capp pipette. Synchronized L1 worms from above were collected, diluted and plated at ten worms/30 µl/well with a Capp pipette into assay-ready microtiter plates pre-plated with BGs and compounds (240-fold dilution). […] No ethical approval or guidance is needed for working with nematodes.\nData from the Anti-Infectives screen were normalized by plate to corresponding intra-plate controls as previously described ([Inglese et al., 2006]). Assay statistics were calculated using the same respective controls. Total object ‘GFP’ area (µm^2) and number of worms were normalized to the average signal of DMSO-treated wells as zero percent neutral control, and the average signal of 41.7 µM levamisole-treated wells as −100% activity. In-house software was used to fit the resulting inter-plate titration data to the standard Hill equation, and concentration–response curves were classified by activity as previously described ([Southall et al., 2009]). Curve fits assignments of −1.1, −1.2, −2.1, −2.2 and −3 were considered active and visually confirmed."}, "[4]": {"test_system": "C. elegans strain PE254", "test": "384-well LSC C. elegans viability assay, life-stage sorted worms on BGs or OP50 live bacteria (assay development)", "format": "in vivo, Caenorhabditis elegans", "method": "Strain PE254 worms were collected from eight NGM plates as above. The mixed population of C. elegans was resuspended in 30 ml 1× S basal buffer and plated at ten GFP worms per well of each life stage into respective wells of 384-well uClear microtiter plates with the COPAS biosorter run with the calibration protocol and settings from above. E. coli BGs diluted to OD600=0.6 or OP50 live bacteria diluted to OD600=0.05, 0.10, 0.15 or 0.2 in S medium were added to respective plates at 30 μl per well manually with a Capp pipette (BioVentures, Inc.). […] Plates were covered with a Breath-Easy seal (Thermo Fisher Scientific) and weighted metal lids with gas exchange pores (Fujifilm Wako Automation Corp.). Worms were grown in the presence of compound or DMSO for 7 days at 21°C and 65 rpm in an Incu-Shaker (Benchmark Scientific). Worms were imaged every 24–72 h on an Acumen eX3 laser scanning cytometer (STP Labtech). Plates were read with default reader settings, with scan 1 488 nm laser, green (FL-2) detection channel, 400 voltage, sensitivity of 2 and triggered in the green PMT. Green objects detected by the reader were identified as worms based on the filtered FL-2 object parameters perimeter (100-2200), area (1000-180,000), and peak intensity (150-1500). Viability was monitored as an increase in GFP fluorescence quantified as total number and total object area (µm^2) of FL-2 filtered objects per well. LSC data were collected using cellista 4 (version 4.3.4.0, STP Labtech).\nConcentration–response curves for average total filtered FL-2 object area (‘GFP area’) and total filtered FL-2 number of objects (‘number of worms’) for each respective compound were fit with the nonlinear regression log (agonist) versus response–variable slope (four parameters) algorithm in Prism (GraphPad Software). Hillslope and/or EC50 constraints were applied as needed to all life stages per compound across the 7-day time course, and EC50 values were calculated. […] (3) [drawing 3] where σ is the mean signal and µ is the standard deviation for the treated (p) or neutral (n) controls."}, "[5]": {"test_system": "C. elegans", "design": "method as in Sant'anna et al., 2013", "details": "all life stages, post 7-day treatment; ref Sant'anna et al., 2013; read-out: EC50 (toxic); cited from earlier work"}, "[6]": {"test_system": "C. elegans strain PE254", "test": "Follow-up 11-point re-test, C. elegans LSC viability", "format": "in vivo, Caenorhabditis elegans", "details": "day 7, screening control in re-test, 4 replicate wells", "procedure": "C. elegans strain PE254 were collected from six NGM plates and washed. […] Assay-ready plates were prepared as above with an 11-point, 1:3 titration of 96 compounds identified as active from the qHTS screen based on curve classification and maximum response. […] Data were normalized as above, and concentration–response curves were fit in Prism with nonlinear regression log(agonist) versus response–variable slope (four parameters) fit."}},
  "data": [
    {"smiles": "C[C@@H]1CC[C@@]2(OC1)O[C@H]1[C@@H](O)[C@H]3[C@@H]4CC[C@H]5C[C@@H](O[C@@H]6O[C@H](CO)[C@H](O[C@@H]7O[C@H](CO)[C@@H](O)[C@H](O[C@@H]8OC[C@@H](O)[C@H](O)[C@H]8O)[C@H]7O[C@@H]7O[C@H](CO)[C@H](O)[C@H](O[C@@H]8O[C@H](CO)[C@@H](O)[C@H](O)[C@H]8O)[C@H]7O)[C@H](O)[C@H]6O)[C@H](O)C[C@]5(C)[C@H]4CC[C@]3(C)[C@H]1[C@@H]2C", "note": "[Digitonin, digitonin]", "values": [
      {"measurement": "EC50", "setting": "[1]", "value": 31.3, "unit": "µM"}
    ]},
    {"smiles": "CCOCn1c(-c2ccc(Cl)cc2)c(C#N)c(Br)c1C(F)(F)F", "note": "[Chlorfenapyr, chlorfenapyr]", "values": [
      {"measurement": "activity in Tox21 sub-library C. elegans qHTS (in words)", "setting": "[2]", "value": "identified"}
    ]},
    {"smiles": "CCCSc1ccc2nc(NC(=O)OC)[nH]c2c1", "note": "[Albendazole]", "values": [
      {"measurement": "EC50", "setting": "[3]; Caenorhabditis elegans, 72 h, read-out: Treatment day, EC50 (GFP area)", "value": "0.2 ± 0.3", "unit": "µM"},
      {"measurement": "EC50", "setting": "[3]; Caenorhabditis elegans, 96 h, read-out: Treatment day, EC50 (GFP area)", "value": "0.8 ± 0.7", "unit": "µM"},
      {"measurement": "EC50", "setting": "[3]; Caenorhabditis elegans, 120 h, read-out: Treatment day, EC50 (GFP area)", "value": "0.9 ± 0.4", "unit": "µM"},
      {"measurement": "EC50", "setting": "[3]; Caenorhabditis elegans, 144 h, read-out: Treatment day, EC50 (GFP area)", "value": "0.8 ± 0.4", "unit": "µM"},
      {"measurement": "EC50", "setting": "[3]; Caenorhabditis elegans, 168 h, read-out: Treatment day, EC50 (GFP area)", "value": "1.1 ± 0.6", "unit": "µM"},
      {"measurement": "toxicity (in words)", "setting": "[4]; worms grown on BGs, as early as day 1 for L4 and adult worms, by day 2 for most life stages", "value": "significant toxicity"},
      {"measurement": "EC50", "setting": "[5]", "value": "> 10", "unit": "µM"}
    ]},
    {"smiles": "Clc1ccc(C(c2ccc(Cl)cc2)C(Cl)(Cl)Cl)cc1", "note": "[DDT, dichlorodiphenyltrichloroethane]", "values": [
      {"measurement": "activity in Tox21 sub-library C. elegans qHTS (in words)", "setting": "[2]", "value": "potent activity"}
    ]},
    {"smiles": "c1ccc([C@H]2CN3CCSC3=N2)cc1", "note": "[Levamisole]", "values": [
      {"measurement": "EC50", "setting": "[3]; day 3, intra-plate screening control, averaged from 21 replicates, normalized to 41.7 μM levamisole, read-out: EC50 (GFP area)", "value": "9.37 ± 0.93", "unit": "µM"},
      {"measurement": "EC50", "setting": "[3]; day 3, intra-plate screening control, averaged from 21 replicates, read-out: EC50 (number of worms)", "value": "5.96 ± 2.4", "unit": "µM"},
      {"measurement": "EC50", "setting": "[3]; day 7, intra-plate screening control, averaged from 21 replicates, read-out: EC50 (GFP area)", "value": "7.99 ± 1.44", "unit": "µM"},
      {"measurement": "EC50", "setting": "[3]; day 7, intra-plate screening control, averaged from 21 replicates, read-out: EC50 (number of worms)", "value": "5.74 ± 0.91", "unit": "µM"},
      {"measurement": "activity on C. elegans viability in primary qHTS (in words)", "setting": "[3]; seven-point titration, GFP area", "value": "active"},
      {"measurement": "EC50", "setting": "[3]; treatment day 2, internal control, 16-point titration, six replicate wells, read-out: Treatment day, EC50 (GFP area)", "value": "12.7 ± 4.7", "unit": "µM"},
      {"measurement": "EC50", "setting": "[3]; treatment day 3, internal control, 16-point titration, six replicate wells, read-out: Treatment day, EC50 (GFP area)", "value": "14 ± 5.5", "unit": "µM"},
      {"measurement": "EC50", "setting": "[3]; treatment day 4, internal control, 16-point titration, six replicate wells, read-out: Treatment day, EC50 (GFP area)", "value": "5.6 ± 1.5", "unit": "µM"},
      {"measurement": "EC50", "setting": "[3]; treatment day 5, internal control, 16-point titration, six replicate wells, read-out: Treatment day, EC50 (GFP area)", "value": "5.3 ± 0.6", "unit": "µM"},
      {"measurement": "EC50", "setting": "[3]; treatment day 6, internal control, 16-point titration, six replicate wells, read-out: Treatment day, EC50 (GFP area)", "value": "4.9 ± 0.4", "unit": "µM"},
      {"measurement": "EC50", "setting": "[3]; treatment day 7, internal control, 16-point titration, six replicate wells, read-out: Treatment day, EC50 (GFP area)", "value": "5 ± 0.8", "unit": "µM"},
      {"measurement": "EC50 values (in words)", "setting": "[4]; all life stages, both media (BGs and live bacteria), 7-day time course", "value": "low-micromolar range"},
      {"measurement": "EC50", "setting": "[6]; read-out: EC50 using #worms", "value": 2.45, "unit": "µM"},
      {"measurement": "EC50", "setting": "[6]; read-out: EC50 using GFP area", "value": 2.23, "unit": "µM"}
    ]}
  ]
}
